Experimental data reported in patent publication US20190119348A1, “PARATHYROID HORMONE RECEPTOR 1 ANTAGONIST AND INVERSE AGONIST POLYPEPTIDES AND METHODS OF THEIR USE” (The General Hospital Corporation, priority 2016, published 2019).
Where a SMILES comes first, the peptide text is derived from it. [ ]: non-standard residue; d: D form. Nle = CCCC[C@H](N)C(=O)O

Target: T1, human PTHR1-H223R (Homo sapiens, UniProt Q03431, H223R)
T1 construct: expressed in transfected cells; host or cells: GHR-10 (HEK-293 stably expressing GloSensor and PTHR1-H223R)
T1 sequence (Q03431 27-593 H223R): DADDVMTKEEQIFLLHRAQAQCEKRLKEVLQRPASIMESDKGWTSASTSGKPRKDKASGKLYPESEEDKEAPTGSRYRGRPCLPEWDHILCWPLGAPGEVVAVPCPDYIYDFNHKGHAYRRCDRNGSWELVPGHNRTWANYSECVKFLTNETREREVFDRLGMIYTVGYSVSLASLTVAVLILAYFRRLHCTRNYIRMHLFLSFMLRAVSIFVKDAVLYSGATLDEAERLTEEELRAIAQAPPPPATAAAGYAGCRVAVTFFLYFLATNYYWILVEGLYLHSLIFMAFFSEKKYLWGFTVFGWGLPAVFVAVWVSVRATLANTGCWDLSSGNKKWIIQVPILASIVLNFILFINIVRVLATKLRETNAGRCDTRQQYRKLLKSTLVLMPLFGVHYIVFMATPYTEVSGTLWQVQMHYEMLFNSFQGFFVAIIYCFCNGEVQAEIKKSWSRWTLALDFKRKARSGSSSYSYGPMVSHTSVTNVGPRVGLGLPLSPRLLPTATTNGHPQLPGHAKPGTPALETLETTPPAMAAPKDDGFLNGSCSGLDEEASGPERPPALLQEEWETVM
Experiment: Inverse agonism on basal cAMP signaling in GHR-10 cells
Assay type: cell-based
Conditions: GHR-10 cells, from AUC, representative experiment; for Reduction of basal cAMP, % vehicle, After ligand washout: 26 minutes after washout of unbound ligand; for Reduction of basal cAMP, % vehicle, Ligand @ −6M: peptide 1×10^−6 M for 24 minutes
Protocol: cAMP signaling was assessed in the HEK293-derived or SaOS2-derived cell lines stably expressing the luciferase-based GloSensor™ cAMP reporter (Hattersley et al., Paper presented at: Novel Signaling Mechanisms and Bone Cell Biology 2014; Binkowski et al., Methods in molecular biology. 756:263-271). HEK-293 cells were further transfected to stably express the hPTHR1, hPTHR1-H223R, or hPTHR1-T410P. The cells were seeded into 96-well white plates and were assayed 24 to 48 hours post-confluency. Assays were performed at room temperature in CO2-independent culture media (Life Technologies, Corp., Carlsbad, Calif.) containing 0.1% BSA (CIDB). The cells were pre-loaded with luciferin (0.5 mM in CIDB) for 15 minutes, then PTH peptides were added at varying concentrations. cAMP-dependent luminescence was measured at two-minute intervals using a PerkinElmer Envision plate reader. The time at which maximum luminescence (cps) observed with agonist alone, typically at 10-20 minutes after agonist addition, was used to obtain data from wells containing antagonist with or without agonist, to thus generate antagonist ligand dose-response curves. The resulting cps values were then plotted against ligand concentration using GraphPad Prism 7.0 software and a four-parameter logistics curve fitting equation, which yielded parameters of inhibitory potency (pIC50).
These experiments were performed in HEK-293 cells stably transfected to express the GloSensor™ cAMP reporter along with a constitutively active mutant human PTHR1. The HEK-293 cells stably expressing GloSensor™ cAMP reporter along with a constitutively active mutant human PTHR1-H223R are GHR-10 cells. The HEK-293 cells stably expressing GloSensor™ cAMP reporter along with a constitutively active mutant human PTHR1-T410P are GTP-4 cells. The HEK-293 cells stably expressing GloSensor™ cAMP reporter along with a WT-PTHR1 are GP-2.3 cells. GP-2.3 cells were used as control. […] Effects on basal cAMP signaling over time were assessed during periods of direct ligand addition (FIGS. 15A-15F). The measurements were performed by recording GloSensor™ luminescence as counts per second (cps) using a PerkinElmer Envision plate reader. The data are illustrated in FIGS. 15A-15F. Data are from triplicate wells (means±SEM) of a single experiment representative of two others.
Persistence of the antagonist/inverse agonist effects (prolonged action) as follows. Effects of eight peptides on basal and PTH(1-34)-stimulated cAMP signaling by PTHR-H223R were assessed in GHR-10 cells (HEK-293-derived cells stably expressing glosensor cAMP reporter and PTHR1-H223R). Time courses of changes in cAMP levels were recorded in three consecutive phases:
1) after initial addition of a candidate antagonist/inverse agonist (1×10^−6 M-1×10^−9 M) to cells pre-loaded for […] with luciferin (left column);
2) after removal of unbound inverse agonist by extensive wash-out with buffer and replenishment with fresh luciferin-containing buffer (middle column); and
Control wells were treated with vehicle. GloSensor™ luminescence, as counts per second (cps), was recorded using a PerkinElmer Envision plate reader. Data are from duplicate wells (means±SEM) of a single experiment representative of two others. The results are illustrated in Table 7 and in FIGS. 16A-16C, 17A-17C, 18A-18C, 19A-19C, 20A-20C, 21A-21C, 22A-22C, and 23A-23C.
GHR10 cells were treated with vehicle or vehicle containing the indicated peptide for 24 minutes and cAMP-dependent luminescence was recorded at two-minute intervals. The cells were then washed to remove unbound ligand and media containing fresh luciferin was added, and cAMP luminescence was recorded for another 26 minutes. Percentage reduction was calculated from the area-under-the-curve (AUC) values derived from the time course plots using the equation: […]

Structure (SMILES) | Reduction of basal cAMP, % vehicle, After ligand washout | Reduction of basal cAMP, % vehicle, Ligand @ −6M
CC[C@H](C)[C@H](N)C(=O)N[C@@H](CCC(N)=O)C(=O)N[C@@H](CC(C)C)C(=O)N[C@@H](CCSC)C(=O)N[C@@H](Cc1c[nH]cn1)C(=O)N[C@@H](CCC(N)=O)C(=O)N[C@@H](CC(C)C)C(=O)N[C@H](Cc1c[nH]c2ccccc12)C(=O)N[C@@H](CCCCN)C(=O)N[C@@H](Cc1c[nH]c2ccccc12)C(=O)N[C@H](C(=O)N[C@@H](CCC(N)=O)C(=O)N[C@@H](CC(=O)O)C(=O)N[C@@H](C)C(=O)N[C@@H](CCCNC(=N)N)C(=O)N[C@@H](CCCNC(=N)N)C(=O)N[C@@H](CCCNC(=N)N)C(=O)N[C@@H](C)C(=O)N[C@@H](Cc1c[nH]c2ccccc12)C(=O)N[C@@H](CC(C)C)C(=O)N[C@@H](Cc1c[nH]cn1)C(=O)N[C@@H](CCCCN)C(=O)N[C@@H](CC(C)C)C(=O)N[C@H](C(=O)N[C@@H](C)C(=O)N[C@@H](CCC(=O)O)C(=O)N[C@H](C(=O)N[C@@H](Cc1c[nH]cn1)C(=O)N[C@H](C(=O)N[C@@H](C)C(=O)N[C@@H](CCC(=O)O)C(=O)N[C@H](C(N)=O)[C@@H](C)CC)[C@@H](C)O)[C@@H](C)CC)[C@@H](C)CC)[C@@H](C)CC [compound 2003, L11, dW12, W23-LA-PTH(5-36)-2003] (H-IQLMHQL[dW]KWIQDARRRAWLHKLIAEIHTAEI-NH2; N-terminus assumed) | 64 % vehicle | 66 % vehicle
CCCC[C@H](NC(=O)[C@@H](N)CC(C)C)C(=O)N[C@@H](Cc1c[nH]cn1)C(=O)N[C@@H](CCC(N)=O)C(=O)N[C@@H](CC(C)C)C(=O)N[C@H](Cc1c[nH]c2ccccc12)C(=O)N[C@@H](CCCCN)C(=O)N[C@@H](Cc1c[nH]c2ccccc12)C(=O)N[C@H](C(=O)N[C@@H](CCC(N)=O)C(=O)N[C@@H](CC(=O)O)C(=O)N[C@@H](C)C(=O)N[C@@H](CCCNC(=N)N)C(=O)N[C@@H](CCCNC(=N)N)C(=O)N[C@@H](CCCNC(=N)N)C(=O)N[C@@H](C)C(=O)N[C@@H](Cc1c[nH]c2ccccc12)C(=O)N[C@@H](CC(C)C)C(=O)N[C@@H](Cc1c[nH]cn1)C(=O)N[C@@H](CCCCN)C(=O)N[C@@H](CC(C)C)C(=O)N[C@H](C(=O)N[C@@H](C)C(=O)N[C@@H](CCC(=O)O)C(=O)N[C@H](C(=O)N[C@@H](Cc1c[nH]cn1)C(=O)N[C@H](C(=O)N[C@@H](C)C(=O)N[C@@H](CCC(=O)O)C(=O)N[C@H](C(N)=O)[C@@H](C)CC)[C@@H](C)O)[C@@H](C)CC)[C@@H](C)CC)[C@@H](C)CC [compound 1997, Nle8,L11, dW12, W23-LA-PTH(7-36)-1997] (H-L[Nle]HQL[dW]KWIQDARRRAWLHKLIAEIHTAEI-NH2; N-terminus assumed) | 71 % vehicle | 70 % vehicle
CCCC[C@H](NC(=O)[C@H](CC(C)C)NC(=O)[C@H](CCC(N)=O)NC(=O)[C@@H](N)[C@@H](C)CC)C(=O)N[C@@H](Cc1c[nH]cn1)C(=O)N[C@@H](CCC(N)=O)C(=O)N[C@@H](CC(C)C)C(=O)N[C@H](Cc1c[nH]c2ccccc12)C(=O)N[C@@H](CCCCN)C(=O)N[C@@H](Cc1c[nH]c2ccccc12)C(=O)N[C@H](C(=O)N[C@@H](CCC(N)=O)C(=O)N[C@@H](CC(=O)O)C(=O)N[C@@H](C)C(=O)N[C@@H](CCCNC(=N)N)C(=O)N[C@@H](CCCNC(=N)N)C(=O)N[C@@H](CCCNC(=N)N)C(=O)N[C@@H](C)C(=O)N[C@@H](Cc1c[nH]c2ccccc12)C(=O)N[C@@H](CC(C)C)C(=O)N[C@@H](Cc1c[nH]cn1)C(=O)N[C@@H](CCCCN)C(=O)N[C@@H](CC(C)C)C(=O)N[C@H](C(=O)N[C@@H](C)C(=O)N[C@@H](CCC(=O)O)C(=O)N[C@H](C(=O)N[C@@H](Cc1c[nH]cn1)C(=O)N[C@H](C(=O)N[C@@H](C)C(=O)N[C@@H](CCC(=O)O)C(=O)N[C@H](C(N)=O)[C@@H](C)CC)[C@@H](C)O)[C@@H](C)CC)[C@@H](C)CC)[C@@H](C)CC [compound 1999, Nle8, L11, dW12, W23-LA-PTH(5-36)-1999] (H-IQL[Nle]HQL[dW]KWIQDARRRAWLHKLIAEIHTAEI-NH2; N-terminus assumed) | 62 % vehicle | 63 % vehicle
